# From US5140040A, “1-aminomethyl-1,2,3,4-tetrahydronaphthalenes” (Abbott Laboratories, priority 1991, dated 1992)
# Structures can show the parent of a compound that is named as a salt.
# Assays:
# serotonin uptake = experiment: Biogenic amine uptake inhibition, rat brain synaptosomes, tritiated serotonin; type: biochemical, Sprague-Dawley derived rats; details: tritiated amine 0.1 μM, 37° C., 4 minutes
# Source text: (§1) Sprague-Dawley derived rats of either sex, weighing about 180-250 g, were killed by decapitation. The brains were immediately removed, placed on a glass plate chilled over crushed ice and dissected according to a modification of the method of Glowinski and Iversen (J. Neurochem. 13, 655-669, 1966). First, the rhombencephalon was separated by transverse section and discarded. The remaining tissue was bisected by a midline sagittal cut. The hypothalamus was removed using the anterior and posterior reference points, respectively. The hippocampus was peeled away and discarded and the striata were exposed and removed. Frontal cortical tissue was dissected from remaining brain structures. The hypothalamus and striatum each weighed about 100 mg , the striata 50-75 mg, and the cortex weighed up to 800 mg. The tissues were placed in a cold Potter-Elvehjem glass homogenizer with 5 (cortex) or 10 (hypothalamus) and 20 (striatum) volumes of ice-cold 0.32M sucrose, pH 7.0 and homogenized by hand. The homogenate was centrifuged at 2500 rpm in a GLC centrifuge for 10 minutes in a refrigerated room. The supernatant fraction containing the synaptosomes was decanted, mixed thoroughly, and kept on crushed ice for use in the uptake studies.
# (§2) Uptake studies were conducted according to the method of Synder and Coyle (J. PharmacoI. Exp. Ther. 165, 78-86, 1969) with minor modifications. Usually a 0.1 ml aliquot of the synaptosomal preparation was incubated in a mixture of 0.75 ml of modified Krebs-Ringer buffer, 0.05 ml of the drug being evaluated for uptake inhibition, and 0.1 ml of a 1 μM tritiated amine (norepinephrine, serotonin or dopamine) solution (final concentration 0.1 μM) for a total volume of 1 ml. The modified Krebs-Ringer bicarbonate buffer used in these studies contained 118 mM NaCl, 4 mM KCl, 1.3 mM CaCl2, 1.12 mM KH2 PO4, 1.2 mM MgSO4 and 24 mM NaHCO3, with the addition of 5 mM glucose, 0.15 mM disodium EDTA, 12.5 μM pargyline and 1 mM ascorbic acid. Uptake was initiated by the addition of the tritiated amine, and the mixture was incubated at 37° C. in a Dubnoff Metabolic Shaking Incubator for 4 minutes. Control incubations without the test drug were conducted at 37° C. to determine total uptake and non-specific binding at 0° C. to correct for the diffusion of the tritiated amine into the synaptosomes and/or binding. Filtration was used to terminate uptake and collect the synaptosomes. In the filtration technique the incubation mixture was diluted with 4 ml of ice-cold 0.9% NaCl and filtered through GF/B glass microfiber filters (Whatman) under gentle vacuum. The filters were subsequently washed four times with 5 ml of ice-cold 0.9% NaCl and transferred to glass scintillation vials. Soluene® ([…]) and IONIC FLUOR (Packard) scintillation fluid (3.5 ml) were added and the vials were placed in a mechanical shaker for 1 hour. All samples were cold and dark adapted and counted in a TriCarb® (Packarad) Model 460 Liquid Scintillation Spectrometer. Corrections were automatically made for quenching by the external standard method and for luminescence. All results (see Table 2) are based on total radioactivity.
# dopamine uptake = experiment: Biogenic amine uptake inhibition, rat brain synaptosomes, tritiated dopamine; type: biochemical, Sprague-Dawley derived rats; details: tritiated amine 0.1 μM, 37° C., 4 minutes
# Source text: as §1, §2
# norepinephrine uptake = experiment: Biogenic amine uptake inhibition, rat brain synaptosomes, tritiated norepinephrine; type: biochemical, Sprague-Dawley derived rats; details: tritiated amine 0.1 μM, 37° C., 4 minutes, read-out: Biogenic Amine Uptake Inhibition IC50 Norephinephrine
# Source text: as §1, §2
# alpha-2-receptor = experiment: Radioligand binding, alpha-2 adrenoceptor, rat cerebral cortices, [^3 H]-rauwolscine; details: for Ki: rat cerebral cortices, [^3 H]-rauwolscine; for alpha-2 - Selectivity Ki alpha-1/Ki alpha 2: ratio of Ki alpha-1 to Ki alpha-2
# Description: The compounds were assessed for alpha-adrenergic receptor subtype selectivity by use of radioligand binding techniques as described previously (DeBernardis et.al. J. Med. Chem. 28, 1398 (1985)).
# intraocular pressure = experiment: Effect of topically administered compounds on intraocular pressure of rabbits; type: in vivo, New Zealand rabbits; details: 0.3% soln., 0.1 ml topical
# Description: The intraocular pressure lowering effects of the compounds were evaluated in unanesthetized male albino, New Zealand rabbits weighing 2.0 to 2.5 kg. The rabbits were placed in Plas Labs restraining devices for the duration of the experiment. Intraocular pressure (IOP) was measured with a Bausch and Lomb Applamatic Tonometer and recorded as the average of three individual readings at each time point in the experiment. Baseline IOP values were established at three time points separated by 30 minutes. Each compound or vehicle was applied topically to the cornea in a volume of 0.1 ml to one eye in each six rabbits. The contralateral eye was untreated. IOP was recorded at 5, 15, 30, 60 and 90 minutes after dosing.
Molecule,IC50 (serotonin uptake),IC50 (dopamine uptake),IC50 (norepinephrine uptake),Ki (alpha-2-receptor),alpha-2 - Selectivity Ki alpha-1/Ki alpha 2 (alpha-2-receptor),% Change in Intraocular Pressure After Treatment Compared to Untreated Eye (intraocular pressure; 5 minutes),% Change in Intraocular Pressure After Treatment Compared to Untreated Eye (intraocular pressure; 15 minutes),% Change in Intraocular Pressure After Treatment Compared to Untreated Eye (intraocular pressure; 30 minutes),% Change in Intraocular Pressure After Treatment Compared to Untreated Eye (intraocular pressure; 60 minutes),% Change in Intraocular Pressure After Treatment Compared to Untreated Eye (intraocular pressure; 90 minutes)
"8-Fluoro-5,6-methylenedioxy-1-(3-phenylpyrrolidino1-methyl) tetralin hydrochloride [Example 160]",1.84 µM,2.93 µM,0.991 µM,–,–,–,–,–,–,–
"COc1ccc2c(c1)CCCC2CN(C)CCc1cccs1 (centres unmarked) [Example 5, 1-((N-Methylamino)methyl-N-(2-(2-thienyl)ethyl))-6-methoxy tetralin methanesulfonate]",5.92 µM,6.53 µM,1.04 µM,0.0008 µM,725,–,–,–,–,–
"COc1ccc2c(c1)CCCC2CN(C)CCc1cccc(F)c1 (centres unmarked) [Example 6b, 1-((N-methylamino)methyl-N-(2-(m-fluorophenyl)ethyl))-6-methoxy tetralin hydrochloride]",1.95 µM,10.1 µM,0.574 µM,0.005 µM,236,–,–,–,–,–
"CN(CCc1cccc(F)c1)CC1CCCc2cc(O)ccc21 (centres unmarked) [Example 10, 1-((N-Methylamino)methyl-N-(2-(m-fluorophenyl)ethyl))6-hydroxy tetralin hydrochloride]",–,–,–,–,–,-45%,-31%,-25%,-36%,-23%
"CN(CCc1ccccc1)CC1CCCc2cc(O)ccc21 (centres unmarked) [Example 11, 1-((N-Methylamino)methyl-N-(2-phenylethyl))-6-hydroxy tetralin hydrobromide]",7.23 µM,10.1 µM,1.74 µM,–,–,–,–,–,–,–
"COc1cccc2c1CCCC2CN(C)CCc1cccs1 (centres unmarked) [Example 19, 1-((N-Methylamino)methyl-N-(2-(2-thienyl)ethyl))-5-methoxy tetralin methanesulfonate]",0.411 µM,6.09 µM,0.498 µM,–,–,–,–,–,–,–
"COc1cccc2c1CCCC2CN(C)CCc1cccc(F)c1 (centres unmarked) [Example 20c, 1-((N-methylamino)methyl-N-(2-(m-fluorophenyl)ethyl))-5-methoxytetralinmethanesulfonate]",0.161 µM,9.17 µM,1.58 µM,–,–,–,–,–,–,–
"CN(CCc1cccs1)CC1CCCc2c1ccc1c2OCCO1 (centres unmarked) [Example 30, 1-((N-Methylamino)methyl-N-(2-(2-thienyl)ethyl))-5,6-ethylenedioxy tetralin hydrochloride]",1.34 µM,8.08 µM,0.624 µM,0.004 µM,118,–,–,–,–,–
"Cc1cc(O)c(O)c2c1C(CN(C)CCc1cccc(F)c1)CCC2 (centres unmarked) [Example 34, 1-(N-Methylamino)methyl-N-(2-(m-fluorophenyl)ethyl))-5,6-dihydroxy-8-methyltetralin hydrobromide]",2.2 µM,9.4 µM,0.365 µM,0.0026 µM,127,–,–,–,–,–
"CCN(CCc1cccs1)CC1CCCc2cc(OC)ccc21 (centres unmarked) [Example 41, 1-((N-Ethylamino)methyl-N-(2-(2-thienyl)ethyl))-6-methoxy tetralin hydrochloride]",2.28 µM,6.03 µM,0.2 µM,0.0029 µM,326,–,–,–,–,–
"CCN(CCc1ccsc1)CC1CCCc2cc(OC)ccc21 (centres unmarked) [Example 44, 1-N-Ethylamino)methyl-N-(2-(3-thienyl)ethyl))-6-methoxy tetralin hydrochloride]",3.29 µM,8.64 µM,0.357 µM,0.0056 µM,105,–,–,–,–,–
"CCN(CCc1cccc(F)c1)CC1CCCc2c(OC)cccc21 (centres unmarked) [Example 72, 1-((N-Ethylamino)methyl-N-(2-(m-fluorophenyl)ethyl))-5-methoxy tetralin hydrochloride]",0.466 µM,6.83 µM,0.137 µM,–,–,–,–,–,–,–
"CCN(CCc1cccs1)CC1CCCc2c(OC)cccc21 (centres unmarked) [Example 73, 1-((N-Ethylamino)methyl-N-(2-(2-thienyl)ethyl))-5-methoxy tetralin hydrochloride]",0.84 µM,8.43 µM,0.336 µM,–,–,–,–,–,–,–
"c1ccc(C2CCN(CC3CCCc4c3ccc3c4OCO3)C2)cc1 (centres unmarked) [Example 143a, 5,6-Methylenedioxy-1-(3-phenylpyrrolidino-1-methyl) tetralin methanesulfonate]",4.03 µM,8.72 µM,1.1 µM,0.0012 µM,43,–,–,–,–,–
"CCN(CCc1cccc(F)c1)CC1CCCc2c1ccc1c2OCO1 (centres unmarked) [Example 165, 1-((N-Ethylamino)methyl-N-(2 m-fluorophenethyl))-5,6-methylenedioxy tetralin hydrochloride]",1.24 µM,6.67 µM,0.398 µM,0.0035 µM,132,–,–,–,–,–
"CN(CCc1cccc(F)c1)CC1CCCc2c1ccc1c2OCO1 (centres unmarked) [Example 166, 1-((N-Methylamino)methyl-N-(2-m-fluorophenethyl))-5,6-methylenedioxy tetralin methanesulfonate]",0.4 µM,8.77 µM,1.52 µM,0.0045 µM,134,–,–,–,–,–
"CCN(CCc1cccs1)CC1CCCc2c1ccc1c2OCCO1 (centres unmarked) [Example 168, 1-((N-Ethylamino)methyl N-(2-(2-thienyl)ethyl))-5,6-ethylenedioxy tetralin hydrochloride]",–,–,–,0.0066 µM,125,–,–,–,–,–
"Fc1ccccc1C1CCN(CC2CCCc3c2ccc2c3OCO2)C1 (centres unmarked) [Example 176a, 5,6-Methylenedioxy-1-(3-(o-fluorophenyl)pyrrolidino-1-methyl) tetralin methanesulfonate]",2.83 µM,7.31 µM,1.56 µM,0.0006 µM,132,–,–,–,–,–
"CN(c1ccc2c(c1)CCCC2CN1CCC(c2ccccc2)C1)S(C)(=O)=O (centres unmarked) [Example 193, 6-(N-methylmethylsulfonamido)-1-(3-(phenylpyrrolidino-1-methyl)tetralin hydrochloride]",–,–,–,0.0013 µM,93,–,–,–,–,–
"CN(C)CCCN1c2ccccc2CCc2ccccc21 [Imipramine, reference compound]",0.778 µM,125 µM,0.346 µM,–,–,–,–,–,–,–
